Experimental data from patent US20240302356A1, “METHOD FOR DETERMINING A TOXICITY AND/OR GROWTH PROMOTION EFFECT OF A TREATMENT OR COMPOUND” (priority 2021, published 2024).
Where two headings read alike, the source gives them in different places.

Columns and labels:
Tobacco nicotiana = Tobacco nicotiana seedlings, flow cytometry (Experiments A1.1, A1.2); type: in vivo; settings: plant seedlings, Cd, Experiment A1.1
From the text: (§1) FIGS. 14A and B illustrates from left to right: Average number of nuclei per microliter of carrier fluid; Endoreplication index (EI), for defence (EIDEFENCE) and for growth (EIGROWTH) of the analysed plant samples from different plant systems exposed to the various treatments mentioned in the table. Data are expressed relative to the first listed condition of each experiment (reference). […] In particular, the toxic effect of Cd in T. nicotiana (see Experiment A1.1) was confirmed by the present invention since EIGROWTH decreased and EIDEFENCE increased in the plant seedlings. Mitigation of this Cd-induced growth inhibition by biochar was confirmed (see Experiment A1.2). […] To optimize the growing medium for A. thaliana, different dilutions of MS medium were tested (see Experiment A1.4). […] The toxic effects of ACC (see Experiment A1.8), IAA (see Experiment A1.9) and the osmoticum PEG (simulating drought stress, see Experiment A1.10) on A. thaliana were confirmed by the present invention since EIGROWTH decreased and EIDEFENCE increased.

Capsicum annuum = Capsicum annuum hypocotyls with roots, flow cytometry (Experiment A1.3); type: in vivo
From the text: as §1

[1] = system: D. caryophyllus seedlings; assay: D. caryophyllus seedlings in 48-well microtiter plate with 1/4 MS medium, flow cytometry; type: in vivo, Dianthus caryophyllus; settings: 9 days
Method: Since results are promising for young seedlings of A. thaliana, it was also investigated whether the invention works in other plant species. To investigate whether the tipping point can also be determined using another plant species, tetraploid D. caryophyllus plants (i.e., basic ploidy level is 4C) were grown in a 48-well microtiter plate with ¼ MS medium and exposed to a Cd concentration range between 0 and 50 μM Cd. FIG. 13 illustrates flow cytometry data of D. caryophyllus seedlings exposed to a Cd range (10-50 μM Cd) and harvested after 9 days. Data are expressed relative to the control condition shown by the horizontal line (1.0). A) Average number of nuclei per microliter of carrier fluid; B) Endoreplication index (EI); C) Relative ploidy level; D) Relative ratios of consecutive ploidy levels; E) EIDEFENCE; and F) EIGROWTH. One-way ANOVA compared to the unexposed condition: * p<0.05.

A. thaliana leaves = A. thaliana leaves cultivated in a hydroponic system, flow cytometry; type: in vivo, Arabidopsis thaliana
Method: To investigate whether the tipping point can also be determined using another cultivation system, A. thaliana plants were grown in a hydroponic system and exposed to a Cd concentration range after 11 days. Since results are promising for young seedlings, it was also investigated whether the invention works in plants of different ages. Therefore, individual samples of the first and the third leaf were harvested at different time points.
LEAF 1: FIG. 11 illustrates flow cytometry data of the first A. thaliana leaf exposed to a Cd range (1-10 μM Cd) after 11 days and harvested at different time points (12-21 days). Data are expressed relative to the unexposed condition (0 μM Cd=1.0). A) Endoreplication index (EI); B) Relative ploidy level; C) Relative ratios of consecutive ploidy levels; D) EIDEFENCE; and E) EIGROWTH. One-way ANOVA compared to the unexposed condition: * p<0.05. […] As known from literature, the maximum ploidy level of young leaves is lower than in mature plants. This is confirmed by the different ploidy levels observed, see FIG. 11B: leaf 1 reaches ploidy levels up to 8C after 12 days, 16C after 14 days and the highest ploidy level of 32C was only reached after 18 days. This shift in maximum ploidy level is hypothesized to influence the tipping point. Therefore, at each age, the tipping point is identified. […] This is confirmed by increased 8C/16C ratios, see FIG. 11C.
LEAF 3: FIG. 12 illustrates flow cytometry data of the third A. thaliana leaf exposed to a Cd range (1-10 μM Cd) after 11 days and harvested at different time points (14-21 days). Data are expressed relative to the unexposed condition (0 μM Cd=1.0). A) Endoreplication index (EI); B) Relative ploidy level; C) Relative ratios of consecutive ploidy levels; D) EIDEFENCE; and E) EIGROWTH. One-way ANOVA compared to the unexposed condition: * p<0.05. […] The different ploidy levels observed confirm the lower maximum ploidy level in young leaves, see FIG. 12B: leaf 3 reaches ploidy levels up to 8C after 14 days, 16C after 18 days and 32C after 21 days. At day 14, leaf 3 was focused on normal cell division as evidenced by the elevated 2C ratio.

[2] = toxic treatments, Experiments A1.8-A1.11
[3] = Cd 10-50 μM, 4C as tipping point

In the case of NC1(C(=O)O)CC1 [ACC], the EIDEFENCE (Arabidopsis thaliana; [2]) is reported as “increased” and the EIGROWTH (Arabidopsis thaliana; [2]) is reported as “decreased”.
With C=C1C[C@]23C[C@@]1(O)CC[C@H]2[C@@]12C=C[C@H](O)[C@@](C)(C(=O)O1)[C@H]2[C@@H]3C(=O)O [GA3] the “growth-stimulating effect by EI indices” value (Arabidopsis thaliana; Experiments A1.5-A1.7) was “EIGROWTH increased and/or EIDEFENCE decreased” and the “concentration at which a shift towards toxicity was detected (both EI indices showing an opposite trend)” value (Arabidopsis thaliana; increasing concentrations, Experiment A1.7) was 3 mg I-1.
For O=C(O)Cc1c[nH]c2ccccc12 [IAA], the EIDEFENCE (Arabidopsis thaliana; [2]) was “increased” and the EIGROWTH (Arabidopsis thaliana; [2]) was “decreased”.
For [Cd] [Cd, cadmium], the EIDEFENCE (Tobacco nicotiana) was “increased”, the EIGROWTH (Tobacco nicotiana) was “decreased” and the toxic effect (Capsicum annuum) was “could be confirmed”. For the same compound, the EI ([1]; 50 μM Cd) was “decrease”, the nuclei concentration ([1]; 50 μM Cd) was “decrease” and the EIDEFENCE [1, 3] was “elevated values”. For the same compound, the EIGROWTH [1, 3] was “decreased values”, the EI (A. thaliana leaves; leaf 1, 1-10 μM Cd for 3 days or more (14-days-old plants or older)) was “dose-dependent decrease” and the EIDEFENCE (A. thaliana leaves; leaf 1, 1-10 μM Cd, FIG. 11D) was “elevated values”. The EIGROWTH (A. thaliana leaves; leaf 1, 1-10 μM Cd, FIG. 11E) was “decreased values”, the “EI or ploidy levels” value (A. thaliana leaves; leaf 1, one day of exposure to Cd (12-days-old plants)) was “did not show significant changes” and the EI (A. thaliana leaves; leaf 3, 1-10 μM Cd, FIG. 12A) was “dose-dependent decrease”. The EIDEFENCE (A. thaliana leaves; leaf 3, 1-10 μM Cd, FIG. 12D) was “elevated values”, the EIGROWTH (A. thaliana leaves; leaf 3, 1-10 μM Cd, FIG. 12E) was “decreased values” and the EIDEFENCE (Arabidopsis thaliana; 30 μM Cd or more, 10 days) was “significant and dose-dependent increases”. The “number of nuclei per microliter (plant growth)” value (Arabidopsis thaliana; Cd concentrations from 30 µM or higher, 10 days) was “significant decrease”, the EIDEFENCE (Arabidopsis thaliana; in vivo) was “dose-dependent increase” and the EIGROWTH (Arabidopsis thaliana; in vivo) was “less pronounced dose-dependent decrease”. The “growth (concentration of nuclei)” value (Arabidopsis thaliana; in vivo) was “dose-dependent growth retardation”, the “endoreplication index EI” value (Arabidopsis thaliana; seedlings in MS medium, Cd concentration range 0-50 μM, FIG. 10B) was “dose-dependent induction in endoreplication” and the EIDEFENCE (Arabidopsis thaliana; [2]) was “increased”. The EIGROWTH (Arabidopsis thaliana; [2]) was “decreased”.
